Experimental data from publication PMC5214846 (Structure (London, England : 1993), 2016).
Like-named read-outs stand apart in the source and are kept apart here.

Tests used:
[1] = biological target: T1, ELIC (Dickeya chrysanthemi, UniProt P0C7B7); experiment: Functional measurements of Xenopus laevis oocytes expressing ELIC; settings: for Modulation of ELIC at low agonist concentration (EC3) / Modulation of ELIC at EC20: representative traces; for Modulation of ELIC at EC20: agonist EC20
[2] = tested on: ELIC-α1β3GABAAR; format: cell-based; settings: for Modulation of ELIC-α1β3GABAAR at EC20: agonist EC20
[3] = biological target: T1, ELIC; settings: cited from earlier work
[4] = Highest soluble concentration of long-chain alcohols

T1 sequence (P0C7B7 whole entry): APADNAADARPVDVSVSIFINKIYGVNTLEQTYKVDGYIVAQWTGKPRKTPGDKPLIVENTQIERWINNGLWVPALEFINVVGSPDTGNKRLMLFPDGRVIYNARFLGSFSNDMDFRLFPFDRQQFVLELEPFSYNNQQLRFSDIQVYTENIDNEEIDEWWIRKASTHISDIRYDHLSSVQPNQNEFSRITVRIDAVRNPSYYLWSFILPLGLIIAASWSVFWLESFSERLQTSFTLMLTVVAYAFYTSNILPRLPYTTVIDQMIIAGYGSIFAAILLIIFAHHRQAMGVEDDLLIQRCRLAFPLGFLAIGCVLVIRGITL

Structure (SMILES)	Modulation of ELIC at low agonist concentration (EC3) [1]	Modulation of ELIC at EC20 [1]	Modulation of ELIC-α1β3GABAAR at low agonist concentration (EC3) [2]	Modulation of ELIC-α1β3GABAAR at EC20 [2]	other results
OCCBr [BrEtOH, 2-bromoethanol]	inhibition	strongly inhibit	potentiate	some potentiation	
CCO [EtOH, ethanol]	inhibition	strongly inhibit	potentiate	no inhibition	
FC(F)OC(Cl)C(F)(F)F (stereo not drawn) [isoflurane]					Effect on ELIC ([3]; binding to the pore at 6′ and 13′ positions, ref Chen et al., 2015): inhibits
CCCCCCCCCCO [n-decanol]					Highest soluble concentration [4]: ~ 0.3 mM; Inhibition of ELIC at highest soluble concentration ([1]; n-decanol ~0.3 mM, n-dodecanol ~0.02 mM, PPA-elicited current): much weaker inhibition than n-nonanol or n-hexanol
CC(C)c1cccc(C(C)C)c1O [propofol]					Effect on ELIC ([3]; through a common TMD intra-subunit binding pocket, ref Kinde et al., 2016): inhibit
